According to patent US20030215462A1, “Use of UGT inhibitors to increase bioavailability” (priority 2001, published 2003):
Blank lines part the entries; values can stand above or below the molecule they belong to.

Assays:
human liver microsomes = experiment: Glucuronidation of UGT substrates by human liver microsomes; conditions: for 7-HFC glucuronidation rate: 100 μg/ml protein, 1 mM UDPGA, 15 min
[1] = as above; conditions: human, human liver microsomes, pH 7.5
UGT1A3 = biological target: T1, UGT1A3 (Homo sapiens, UniProt P35503); experiment: Substrate glucuronidation by recombinant UGT1A3; conditions: for 7-HFC glucuronidation rate: 7-HFC 50 μM
T1 sequence (P35503 29-534): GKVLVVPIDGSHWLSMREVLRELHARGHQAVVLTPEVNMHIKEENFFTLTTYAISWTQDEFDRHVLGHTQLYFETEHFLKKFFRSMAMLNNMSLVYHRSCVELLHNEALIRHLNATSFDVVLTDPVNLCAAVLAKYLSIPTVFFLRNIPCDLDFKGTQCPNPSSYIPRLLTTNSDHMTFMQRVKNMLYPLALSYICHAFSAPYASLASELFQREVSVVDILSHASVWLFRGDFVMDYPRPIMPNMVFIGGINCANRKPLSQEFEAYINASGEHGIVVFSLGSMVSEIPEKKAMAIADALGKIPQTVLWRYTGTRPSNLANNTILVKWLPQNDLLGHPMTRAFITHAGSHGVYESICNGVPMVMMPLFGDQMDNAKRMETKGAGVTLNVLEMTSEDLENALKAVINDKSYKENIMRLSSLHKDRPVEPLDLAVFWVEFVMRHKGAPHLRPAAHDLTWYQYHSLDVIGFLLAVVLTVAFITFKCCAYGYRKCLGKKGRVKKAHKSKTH

UGT1A6 [2] = biological target: T2, UGT1A6 (Homo sapiens, UniProt P19224); experiment: Substrate glucuronidation by recombinant UGT1A6; conditions: for 7-HFC glucuronidation rate: 7-HFC 50 μM
T2 sequence (P19224 27-532): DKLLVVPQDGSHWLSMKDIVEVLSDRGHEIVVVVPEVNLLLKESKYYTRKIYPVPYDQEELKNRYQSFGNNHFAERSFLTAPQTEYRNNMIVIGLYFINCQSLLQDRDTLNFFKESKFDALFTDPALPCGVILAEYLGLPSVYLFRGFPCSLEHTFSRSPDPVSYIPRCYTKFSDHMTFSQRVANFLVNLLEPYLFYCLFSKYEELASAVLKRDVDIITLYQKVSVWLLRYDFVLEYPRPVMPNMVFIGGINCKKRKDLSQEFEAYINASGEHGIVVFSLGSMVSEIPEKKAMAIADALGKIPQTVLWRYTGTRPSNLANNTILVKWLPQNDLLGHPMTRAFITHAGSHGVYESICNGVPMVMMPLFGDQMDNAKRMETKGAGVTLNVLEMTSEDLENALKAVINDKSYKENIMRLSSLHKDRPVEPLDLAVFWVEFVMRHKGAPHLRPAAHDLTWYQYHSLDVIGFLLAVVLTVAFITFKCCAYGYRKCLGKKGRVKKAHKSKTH

[3] = test system: pooled human jejunum microsomes; experiment: Glucuronidation of UGT substrates by pooled human jejunum microsomes; conditions: human jejunum microsomes (table footnote)
[4] = healthy volunteers, concomitant diflunisal; cited from earlier work
UGT1A1 = biological target: T3, UGT1A1 (Homo sapiens, UniProt P22309)
T3 sequence (P22309 26-533): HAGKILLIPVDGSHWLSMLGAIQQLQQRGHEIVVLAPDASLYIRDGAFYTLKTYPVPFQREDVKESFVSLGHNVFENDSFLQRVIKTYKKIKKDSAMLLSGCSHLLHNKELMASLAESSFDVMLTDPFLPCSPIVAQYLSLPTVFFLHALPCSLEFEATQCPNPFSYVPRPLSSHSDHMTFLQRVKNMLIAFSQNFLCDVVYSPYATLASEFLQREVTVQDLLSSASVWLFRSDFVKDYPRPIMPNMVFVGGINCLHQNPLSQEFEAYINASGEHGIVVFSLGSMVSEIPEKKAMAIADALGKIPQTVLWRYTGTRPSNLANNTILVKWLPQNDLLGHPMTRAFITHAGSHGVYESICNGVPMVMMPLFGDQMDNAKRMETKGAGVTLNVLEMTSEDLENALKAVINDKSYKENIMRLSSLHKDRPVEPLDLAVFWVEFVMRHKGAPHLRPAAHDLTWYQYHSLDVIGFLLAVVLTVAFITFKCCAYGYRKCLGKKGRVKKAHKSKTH

UGT1A6 [5] = biological target: T2, UGT1A6
UGT1A9 = biological target: T4, UGT1A9 (Homo sapiens, UniProt O60656); conditions: 30 min, 100 μM, pH 7.5
T4 sequence (O60656 26-530): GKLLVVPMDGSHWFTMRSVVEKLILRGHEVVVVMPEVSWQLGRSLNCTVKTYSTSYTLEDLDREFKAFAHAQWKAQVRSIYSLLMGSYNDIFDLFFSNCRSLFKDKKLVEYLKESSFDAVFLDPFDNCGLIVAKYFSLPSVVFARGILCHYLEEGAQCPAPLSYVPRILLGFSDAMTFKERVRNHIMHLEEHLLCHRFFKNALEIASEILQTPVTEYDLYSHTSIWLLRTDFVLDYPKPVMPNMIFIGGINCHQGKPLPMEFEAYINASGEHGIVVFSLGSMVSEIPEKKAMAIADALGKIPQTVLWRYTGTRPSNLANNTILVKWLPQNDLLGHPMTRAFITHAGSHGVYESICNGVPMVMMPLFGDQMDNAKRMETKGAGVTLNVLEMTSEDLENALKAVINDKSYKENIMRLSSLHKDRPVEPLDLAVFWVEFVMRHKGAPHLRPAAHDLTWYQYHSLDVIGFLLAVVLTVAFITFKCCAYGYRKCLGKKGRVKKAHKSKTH

7-HFC glucuronidation rate in human liver microsomes, times higher than UGT1A6 Supersomes (human liver microsomes): 6 times
7-HFC metabolism rate (human liver microsomes; human liver microsomes (table footnote)): 26,405 ± 272 pmol/min/mg
7-HFC glucuronidation rate (human liver microsomes; liver microsome lot 032101): 29,907±562 pmol/min/mg
7-HFC glucuronidation rate (human liver microsomes; liver microsome lot 062101): 33,039±493 pmol/min/mg
7-HFC glucuronidation rate (human liver microsomes; liver microsome lot 062900): 26,405±272 pmol/min/mg
Km at 15 min [1]: 85 µM
7-HFC glucuronidation rate in Panvera Bacculosomes as % of Gentest Supersomes (UGT1A3; UGT1A3): 2%
7-HFC glucuronidation rate (UGT1A3; UGT1A3 Bacculosomes 250 μg/ml): 17 ± 1 pmol/min/mg protein
7-HFC glucuronidation rate (UGT1A3; UGT1A3 Supersomes 250 μg/ml): 952 ± 82 pmol/min/mg protein
7-HFC glucuronidation rate in Panvera Bacculosomes as % of Gentest Supersomes (UGT1A6 [2]; UGT1A6): 31%
7-HFC glucuronidation rate (UGT1A6 [2]; UGT1A6 Bacculosomes 250 μg/ml): 1528 ± 34 pmol/min/mg protein
7-HFC glucuronidation rate (UGT1A6 [2]; UGT1A6 Supersomes 250 μg/ml): 4904 ± 368 pmol/min/mg protein
7-HFC metabolism rate [3]: 6,829 ± 61 pmol/min/mg
Compound: O=c1cc(C(F)(F)F)c2ccc(O)cc2o1 [7-HFC, 7-hydroxy-4-(trifluoromethyl)coumarin]
mean apparent Vmax for 7-HFC glucuronidation (human liver microsomes; microsome lot 062900, substrate 20-500 μM): 60 nmol/min/mg microsomal protein

Compound: O=C(O)c1cc(-c2ccc(F)cc2F)ccc1O [Diflunisal, reference compound]
decrease in indomethacin clearance [4]: 70%

labetalol metabolism, in words (UGT1A1): No detectable metabolism was observed
labetalol metabolism, in words (UGT1A6 [5]): No detectable metabolism was observed
LG1/LG2 (UGT1A9): 0.8
labetalol metabolite LG1, peak area normalized to internal standard (UGT1A9): 38 (1)
labetalol metabolite LG2, peak area normalized to internal standard (UGT1A9): 49 (1)
Compound: CC(CCc1ccccc1)NCC(O)c1ccc(O)c(C(N)=O)c1 (centres unmarked) [Labetalol, labetalol]
